Compound: CC1CC(=O)N(C2=CN=C(N=C2N1C3CCCC3)NC4=C(C=C(C=C4)C(=O)NC5CCN(CC5)C)OC)C [NPK76-II-72-1] + CS(=O)(=O)CCNCc1ccc(-c2ccc3ncnc(Nc4ccc(OCc5cccc(F)c5)c(Cl)c4)c3c2)o1 [Lapatinib] (partner 2 µM)
Test: relative viability (nuclei count vs DMSO), 5 days (fraction); higher = more cells survive
Settings: first compound 0.01 µM
Summary of the method: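 Relative viability divides the nuclei count in treated wells by that in vehicle wells. Lung cancer cell lines were seeded in 1536-well plates, dosed by pin tool the next day, and fixed and stained after 5 days in one step with final 0.05% Triton X-100, 1% formaldehyde and 1 ug/ml Hoechst. Dosing was a single drug or a fixed anchor-drug dose plus five library-drug doses (not always all listed) in √10 steps, and values are medians of duplicate plates imaged at 4×.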

| Cell Line | relative viability |
| --- | --- |
| NCI-H838 | 0.951 |
| NCI-H520 | 0.735 |
| NCI-H2126 | 0.686 |
| EMC-BAC-2 | 0.9 |
| NCI-H2085 | 0.748 |
| HCC-366 | 1.04 |
| NCI-H1666 | 0.515 |
| NCI-H596 | 1 |
| LK-2 | 0.83 |
| NCI-H2087 | 1.01 |
| SK-MES-1 | 0.447 |
| H3255 | 0.263 |
| COR-L23 | 0.879 |
| COR-L 105 | 0.404 |
| LOU-NH91 | 0.746 |
| NCI-H2405 | 1.13 |
| HOP-62 | 1.08 |
| HCC-44 | 0.983 |
| LU99A | 0.965 |
| BEN | 0.61 |
| HARA | 0.762 |
| NCI-H322M | 0.515 |
| NCI-H2009 | 0.961 |
| A-427 | 1.07 |
| NCI-H661 | 0.398 |
| NCI-H1734 | 1.02 |
| NCI-H460 | 0.887 |
| NCI-H2347 | 0.95 |
| SK-LU-1 | 0.897 |
| 201T | 0.975 |

Same assay, conditions: first compound 0.03162 µM

| Cell Line | relative viability |
| --- | --- |
| NCI-H838 | 1.08 |
| NCI-H520 | 0.85 |
| NCI-H2126 | 0.806 |
| EMC-BAC-2 | 1.05 |
| NCI-H2085 | 0.735 |
| HCC-366 | 1.08 |
| NCI-H1666 | 0.653 |
| NCI-H596 | 1.14 |
| LK-2 | 0.886 |
| NCI-H2087 | 0.999 |
| SK-MES-1 | 0.449 |
| H3255 | 0.25 |
| COR-L23 | 1.02 |
| COR-L 105 | 0.375 |
| LOU-NH91 | 0.759 |
| NCI-H2405 | 1.11 |

| Cell Line | relative viability |
| --- | --- |
| HOP-62 | 0.958 |
| HCC-44 | 0.991 |
| LU99A | 0.98 |
| BEN | 0.548 |
| HARA | 0.806 |
| HCC-78 | 0.642 |
| NCI-H322M | 0.636 |
| LCLC-97TM1 | 0.887 |
| NCI-H2009 | 1.09 |
| A-427 | 1.04 |
| NCI-H661 | 0.532 |
| NCI-H1734 | 1.11 |
| NCI-H460 | 0.948 |
| NCI-H2347 | 1.06 |
| SK-LU-1 | 0.867 |
| 201T | 1.07 |

Same assay, conditions: first compound 0.1 µM

| Cell Line | relative viability |
| --- | --- |
| NCI-H838 | 1.05 |
| NCI-H520 | 0.912 |
| NCI-H2126 | 0.755 |
| EMC-BAC-2 | 0.871 |
| NCI-H2085 | 0.763 |
| HCC-366 | 1.01 |
| NCI-H1666 | 0.789 |
| NCI-H596 | 1.07 |
| LK-2 | 0.877 |
| NCI-H2087 | 0.987 |
| SK-MES-1 | 0.426 |
| H3255 | 0.217 |
| COR-L23 | 1.02 |
| COR-L 105 | 0.358 |
| LOU-NH91 | 0.732 |
| NCI-H2405 | 1.09 |

| Cell Line | relative viability |
| --- | --- |
| HOP-62 | 1.02 |
| HCC-44 | 0.935 |
| LU99A | 1.02 |
| BEN | 0.657 |
| HARA | 0.578 |
| HCC-78 | 0.706 |
| NCI-H322M | 0.597 |
| LCLC-97TM1 | 0.859 |
| NCI-H2009 | 0.888 |
| A-427 | 1.02 |
| NCI-H661 | 0.562 |
| NCI-H1734 | 1.16 |
| NCI-H460 | 1.21 |
| NCI-H2347 | 0.857 |
| SK-LU-1 | 0.96 |
| 201T | 1.04 |

Same assay, conditions: first compound 0.3162 µM

| Cell Line | relative viability |
| --- | --- |
| NCI-H838 | 0.971 |
| NCI-H520 | 0.857 |
| NCI-H2126 | 0.733 |
| EMC-BAC-2 | 0.884 |
| NCI-H2085 | 0.714 |
| HCC-366 | 1.14 |
| NCI-H1666 | 0.58 |
| NCI-H596 | 0.914 |
| LK-2 | 0.774 |
| NCI-H2087 | 0.983 |
| SK-MES-1 | 0.419 |
| COR-L23 | 1.03 |
| COR-L 105 | 0.367 |
| LOU-NH91 | 0.777 |
| NCI-H2405 | 1.04 |
| HOP-62 | 0.911 |
| HCC-44 | 0.937 |
| LU99A | 0.857 |
| BEN | 0.492 |
| HARA | 0.722 |
| NCI-H322M | 0.612 |
| LCLC-97TM1 | 0.739 |
| NCI-H2009 | 0.774 |
| A-427 | 1.03 |
| NCI-H661 | 0.473 |
| NCI-H1734 | 1.03 |
| NCI-H460 | 1.02 |
| NCI-H2347 | 0.717 |
| SK-LU-1 | 0.776 |
| 201T | 1.11 |

Same assay, conditions: first compound 1 µM

| Cell Line | relative viability |
| --- | --- |
| NCI-H838 | 1.09 |
| NCI-H520 | 0.841 |
| NCI-H2126 | 0.823 |
| EMC-BAC-2 | 0.912 |
| NCI-H2085 | 0.78 |
| HCC-366 | 1.08 |
| NCI-H1666 | 0.788 |
| NCI-H596 | 1.09 |
| LK-2 | 1.12 |
| NCI-H2087 | 1.05 |
| SK-MES-1 | 0.465 |
| H3255 | 0.226 |
| COR-L23 | 0.929 |
| COR-L 105 | 0.345 |
| LOU-NH91 | 0.822 |
| NCI-H2405 | 1.09 |

| Cell Line | relative viability |
| --- | --- |
| HOP-62 | 1.22 |
| HCC-44 | 1 |
| LU99A | 1.04 |
| BEN | 0.697 |
| HARA | 0.713 |
| HCC-78 | 1.01 |
| NCI-H322M | 0.557 |
| LCLC-97TM1 | 1.32 |
| NCI-H2009 | 1.15 |
| A-427 | 0.953 |
| NCI-H661 | 0.513 |
| NCI-H1734 | 1.17 |
| NCI-H460 | 0.966 |
| NCI-H2347 | 1.08 |
| SK-LU-1 | 1.08 |
| 201T | 1 |

Source: the supplement of paper PMC10307832
